# Laboratory results as given in patent US8329617B2, “Compositions and methods for synergistic manipulation of plant and insect defenses” (Plant Bioscience Limited, priority 2007, dated 2012).
# Entries after “also recorded” stand apart in the source; their conditions may differ.
# Legend:
# Aphis gossypii = test: A. gossypii protein on cotton plants treated with propyl gallate and cis-jasmone; format: in vivo; settings: A. gossypii on cotton
# Bemisia tabaci, GUA MIX [1] = test: Glasshouse simulator trial: B. tabaci pupae protein on tomato plants treated with cis-jasmone and PBO; format: in vivo; settings: for μg (Av) Total Protein (B. tabaci pupae): simulator, ten tomato plants per treatment, ten adult whiteflies per plant, ~16 days
# Method: (§1) In all bioassay experiments the control plants were sprayed with deionised water. Initially seven treatments were used (Table 1) to test all chemical variables. All treatments were applied hydraulically with a spray simulator after which the plants were separated according to treatment (with cis-jasmone controls being separated) and left for 2 hours prior to insect application.
# (§2) Analysis of protein in each treatment was conducted using Bradford Reagent: the data were analysed using the computer programme ‘GraFit’ (Erithacus software, Berkeley). To calculate the calibration curve a single logarithmic curve was used with regression analysis taking the values of the treatment wells (averages of the three readings taken: technical replicates).
# (§3) A new method for the investigation of the development of whitefly to the pupal stage on tomatoes and cotton was used. […] These were checked for protein after ˜16 days using Bradford reagent.
# (§4) Adults were added to the plant 2 h after treatment, and removed after 24 h. The eggs laid were then left for 16-18 days until they reached the pupal stage. The total pupal protein on the plant was tested using the Bradford reagent.
# As described above 10 adult females were released on to each tomato plant, ten/treatment and after ˜16 days pupae were removed using a scalpel blade. These were checked for total protein using Bradford reagent. Plants were put into glasshouse simulators (one/treatment) and kept at 28° C., 12 L: […] and 80% R.H.
# Myzus persicae, US1L [2] = test: Bioassay: M. persicae protein on four pepper plants treated with cis-jasmone and PBO (1, 5 or 10 adults per plant); format: in vivo; settings: for Av. Total Insect Protein μg: Bioassay, M. persicae (US1L), average of weeks 1 to 3; for μg (Av) Total Protein (M. persicae): four pepper plants, 7 days
# Method: as §1
# as §2, with “replicates). […]” for “replicates).”
# To investigate developmental/fecundity effects of cis-jasmone+/−PBO E on Myzus persicae when applied to sweet peppers, one adult was added to the plants. Aphids were brushed from all plants and each leaf checked individually to ensure none remained. The aphid mass for each treatment was assessed for total protein (total from all four plants in the treatment) using Bradford reagent. The amount of aphid protein present on the plants 7 days after treatment was measured.
# (§5) Myzus persicae was applied to sweet peppers at the rate of five adults were added per plant. Aphids were brushed from all plants and each leaf checked individually to ensure none remained. The aphid mass for each treatment was assessed for total protein (total from all four plants in the treatment) using Bradford reagent. The amount of aphid protein present on the plants 7 days after treatment was measured (for further information see Example 3).
# as §5, with “persicae were” for “persicae was”, “of ten” for “of five”, “adults” for “adults were added”
# Bemisia tabaci, GUA MIX [3] = test: Bioassay: B. tabaci pupae protein on one tomato plant treated with cis-jasmone and PBO; format: in vivo; settings: for μg (Av) Total Protein (B. tabaci pupae): one tomato plant, ten adult whiteflies, ~16 days
# Method: as §1, §2, §3, §4
# B. tabaci = B. tabaci pupae protein on cotton plants treated with PBO and/or microencapsulated cis-jasmone; format: in vivo, Bemisia tabaci; settings: five cotton plants per treatment, 5 adult female whiteflies per plant, ~16 days
# Method: as §3, §4
# Myzus persicae, US1L [4] = test: Glasshouse simulator trial: M. persicae protein on pepper plants treated with cis-jasmone and PBO; format: in vivo; settings: for μg (Av) Total Protein (M. persicae): simulator, 25 pepper plants per treatment, three adult apterous aphids per plant, 7 days
# Method: as §1, §2
# To investigate developmental/fecundity effects of cis-jasmone+/−PBO (see Table 1) on Myzus persicae when applied to sweet peppers, adults were added to the plants and then using Bradford reagent, the amount of aphid protein present on the plants 7 days after treatment was measured. Esterase levels were also tested after the same interval to check for the possible induction of metabolic enzymes when using cis-jasmone. Aphids were brushed from all plants and each leaf checked individually to ensure none remained. The aphid mass for each treatment was weighed before total protein was assessed (total from all […] plants in the treatment).
# Myzus persicae were applied to sweet peppers at the rate of three adults per plant. Aphids were brushed from all plants and each leaf checked individually to ensure none remained. The aphid mass for each treatment was assessed for total protein (total from all 25 plants in the treatment) using Bradford reagent. The amount of aphid protein present on the plants 7 days after treatment was measured. Plants were put into glasshouse simulators (one/treatment) and kept at 28° C., 12 L: […] and 80% R.H.
# aphid (M. persicae) = test: Bioassay: M. persicae protein on potato, pepper and black mustard plants treated with BABA and/or PBO; format: in vivo, Myzus persicae; settings: 3 adult apterous aphids per plant, 3 mM BABA root drench, PBO E spray, 7 days
# Method: In all bioassay experiments the control plants were sprayed with deionised water. Initially seven treatments were used (Table 1b) to test all chemical variables. […] Analysis of protein in each treatment was conducted using Bradford Reagent: the data were analysed using the computer programme ‘GraFit’ (Erithacus software, Berkeley). To calculate the calibration curve a single logarithmic curve was used with regression analysis taking the values of the treatment wells (averages of the three readings taken: technical replicates). Laboratory tests were undertaken to compare effects of combined and single treatments of PBO and BABA on control of aphid (M. persicae) on potato, pepper, and black mustard and whitefly (B. tabaci) on cotton and tomato. All tests included untreated and blank (water) controls, and both single and combined applications of PBO and BABA. […] To investigate developmental/fecundity effects of BABA+/−PBO E (see Table 1) on Myzus persicae when applied to plants, adults were added to the plants and then using Bradford reagent, the amount of aphid protein present on the plants 7 days after treatment was measured. Esterase levels were also tested after the same interval to check for the possible induction of metabolic enzymes when using BABA. Aphids were brushed from all plants and each leaf checked individually to ensure none remained. The aphid mass for each treatment was weighed before total protein was assessed (total from all five plants in the treatment).
# whitefly (B. tabaci) = test: Bioassay: B. tabaci pupae protein on cotton and tomato plants treated with BABA and/or PBO; format: in vivo, Bemisia tabaci; settings: 3 mM BABA root drench, PBO E spray
# Method: In all bioassay experiments the control plants were sprayed with deionised water. Initially seven treatments were used (Table 1b) to test all chemical variables. […] Analysis of protein in each treatment was conducted using Bradford Reagent: the data were analysed using the computer programme ‘GraFit’ (Erithacus software, Berkeley). To calculate the calibration curve a single logarithmic curve was used with regression analysis taking the values of the treatment wells (averages of the three readings taken: technical replicates). Laboratory tests were undertaken to compare effects of combined and single treatments of PBO and BABA on control of aphid (M. persicae) on potato, pepper, and black mustard and whitefly (B. tabaci) on cotton and tomato. All tests included untreated and blank (water) controls, and both single and combined applications of PBO and BABA. […] Adults were added to the plant 2 days after treatment, and removed after 24 h. The eggs laid were then left for 16-18 days until they reached the pupal stage. The total pupal protein on the plant was tested using the Bradford reagent.
# first instar aphids = test: BABA root drench concentration series, aphid population growth on brassica and potato; format: in vivo; settings: series 1-10 mM, aphids weighed after 1 week
# Method: Using example crops of brassica [Brassica nigra] and potato [Solanum tuberosum]; BABA was added as a drench to the roots to ‘prime’ the plants in a series of concentrations (1-10 mM). The plants were artificially infested with a set number of first instar aphids (characterised as insecticide-resistant or -susceptible) and left for 1 week. At the end of this period, all aphids were removed and weighed to determine the growth of the population. This identified the optimal concentration of BABA to use to produce maximum secondary metabolites within the plant. All concentrations were lower than that which could cause direct damage to the crop. 3 mM BABA was identified as optimal for the conditions employed.
# [5] = five adult apterous aphids per plant, week 1
# [6] = five adult apterous aphids per plant, week 2
# [7] = five adult apterous aphids per plant, week 3
# [8] = one adult apterous aphid per plant, week 1
# [9] = one adult apterous aphid per plant, week 2
# [10] = one adult apterous aphid per plant, week 3
# [11] = ten adult apterous aphids per plant, week 1
# [12] = ten adult apterous aphids per plant, week 2
# [13] = ten adult apterous aphids per plant, week 3
molecule,measurement,setting,value
"CCCOC(=O)c1cc(O)c(O)c(O)c1 [propyl gallate, Propyl 3,4,5-trihydroxybenzoate]",effect of propyl gallate on efficacy of microencapsulated cis-Jasmone (in words),Aphis gossypii,significantly (p<0.05) improves the efficacy of microencapsulated cis-Jasmone; also recorded: potentiates microencapsulated cis-Jasmone at least as well as PBO
"CC/C=C\CC1=C(C)CCC1=O [CJ, cis-jasmone]",Av. Total Insect Protein μg,"Bemisia tabaci, GUA MIX [1]; Simulator, Bemisia tabaci (GUA MIX) on Tomato (Carousel), average of weeks 1 to 3",0.104 µg
same,μg (Av) Total Protein (B. tabaci pupae),"Bemisia tabaci, GUA MIX [1]; week 1",0.109 µg
same,μg (Av) Total Protein (B. tabaci pupae),"Bemisia tabaci, GUA MIX [1]; week 2",0.102 µg
same,μg (Av) Total Protein (B. tabaci pupae),"Bemisia tabaci, GUA MIX [1]; week 3",0.100 µg
same,Av. Total Insect Protein μg,"Myzus persicae, US1L [2]; 1 adult/plant",7.690 µg
same,Av. Total Insect Protein μg,"Myzus persicae, US1L [2]; 5 adults/plant",11.330 µg
same,Av. Total Insect Protein μg,"Myzus persicae, US1L [2]; 10 adults/plant",25.210 µg
same,μg (Av) Total Protein (M. persicae),"Myzus persicae, US1L [2]; [5]",11.00 µg
same,μg (Av) Total Protein (M. persicae),"Myzus persicae, US1L [2]; [6]",11.99 µg
same,μg (Av) Total Protein (M. persicae),"Myzus persicae, US1L [2]; [7]",11.00 µg
same,μg (Av) Total Protein (M. persicae),"Myzus persicae, US1L [2]; [8]",11.00 µg
same,μg (Av) Total Protein (M. persicae),"Myzus persicae, US1L [2]; [9]",3.27 µg
same,μg (Av) Total Protein (M. persicae),"Myzus persicae, US1L [2]; [10]",8.80 µg
same,μg (Av) Total Protein (M. persicae),"Myzus persicae, US1L [2]; [11]",25.14 µg
same,μg (Av) Total Protein (M. persicae),"Myzus persicae, US1L [2]; [12]",25.4 µg
same,μg (Av) Total Protein (M. persicae),"Myzus persicae, US1L [2]; [13]",25.1 µg
same,Av. Total Insect Protein μg,"Bemisia tabaci, GUA MIX [3]; Bioassay, Bemisia tabaci (GUA MIX), average of weeks 1 to 3",0.167 µg
same,μg (Av) Total Protein (B. tabaci pupae),"Bemisia tabaci, GUA MIX [3]; week 1",0.1 µg
same,μg (Av) Total Protein (B. tabaci pupae),"Bemisia tabaci, GUA MIX [3]; week 2",0.2 µg
same,μg (Av) Total Protein (B. tabaci pupae),"Bemisia tabaci, GUA MIX [3]; week 3",0.2 µg
same,Protein WF (Av),B. tabaci; week 1,0.03 µg
same,Protein WF (Av),B. tabaci; week 2,0.06 µg
same,Av. Total Insect Protein μg,"Myzus persicae, US1L [4]; Simulator, M. persicae (US1L) on Pepper (BellBoy), average of weeks 1 to 3",13.842 µg
same,μg (Av) Total Protein (M. persicae),"Myzus persicae, US1L [4]; week 1",13.82 µg
same,μg (Av) Total Protein (M. persicae),"Myzus persicae, US1L [4]; week 2",13.8 µg
same,μg (Av) Total Protein (M. persicae),"Myzus persicae, US1L [4]; week 3",13.9 µg
"CC(N)CC(=O)O (stereo not drawn) [BABA, beta aminobutyric acid]",Protein A (Av),"aphid (M. persicae); five black mustard plants, week 1",14.56 µg
same,Protein A (Av),"aphid (M. persicae); five black mustard plants, week 2",15.10 µg
same,Protein A (Av),"aphid (M. persicae); five black mustard plants, week 3",14.10 µg
same,Protein A (Av),"aphid (M. persicae); five pepper plants, week 1",15.10 µg
same,Protein A (Av),"aphid (M. persicae); five pepper plants, week 2",16.10 µg
same,Protein A (Av),"aphid (M. persicae); five pepper plants, week 3",15.00 µg
same,Protein A (Av),"aphid (M. persicae); five potato plants, week 1",7.80 µg
same,Protein A (Av),"aphid (M. persicae); five potato plants, week 2",7.90 µg
same,Protein A (Av),"aphid (M. persicae); five potato plants, week 3",8.30 µg
same,Protein WF (Av),"whitefly (B. tabaci); cotton plants, ~16 days, week 1",0.1 µg
same,Protein WF (Av),"whitefly (B. tabaci); cotton plants, ~16 days, week 2",0.2 µg
same,Protein WF (Av),"whitefly (B. tabaci); cotton plants, ~16 days, week 3",0.2 µg
same,Protein WF (Av),"whitefly (B. tabaci); tomato plants, week 1",0.1 µg
same,Protein WF (Av),"whitefly (B. tabaci); tomato plants, week 2",0.23 µg
same,Protein WF (Av),"whitefly (B. tabaci); tomato plants, week 3",0.15 µg
same,optimal concentration of BABA,first instar aphids,3 mM
2-(2-butoxyethoxy)ethyl 6-propylpiperonyl ether [PBO T + Acetone],Av. Total Insect Protein μg,"Myzus persicae, US1L [2]; 1 adult/plant",11.610 µg
same,Av. Total Insect Protein μg,"Myzus persicae, US1L [2]; 5 adults/plant",20.370 µg
same,Av. Total Insect Protein μg,"Myzus persicae, US1L [2]; 10 adults/plant",34.830 µg
same,μg (Av) Total Protein (M. persicae),"Myzus persicae, US1L [2]; [5]",22.30 µg
same,μg (Av) Total Protein (M. persicae),"Myzus persicae, US1L [2]; [6]",16.50 µg
same,μg (Av) Total Protein (M. persicae),"Myzus persicae, US1L [2]; [7]",22.30 µg
same,μg (Av) Total Protein (M. persicae),"Myzus persicae, US1L [2]; [8]",12.23 µg
same,μg (Av) Total Protein (M. persicae),"Myzus persicae, US1L [2]; [9]",12.30 µg
same,μg (Av) Total Protein (M. persicae),"Myzus persicae, US1L [2]; [10]",10.30 µg
same,μg (Av) Total Protein (M. persicae),"Myzus persicae, US1L [2]; [11]",37.68 µg
same,μg (Av) Total Protein (M. persicae),"Myzus persicae, US1L [2]; [12]",33.6 µg
same,μg (Av) Total Protein (M. persicae),"Myzus persicae, US1L [2]; [13]",33.2 µg
